In patent publication US20120015977A1, “QUINOLINONE DERIVATIVES USEFUL FOR THE TREATMENT OF CNS DISORDERS” (NEUROSEARCH A/S, priority 2009, published 2012):

Legend:
[1] = system: Psychomotor seizures induced via corneal stimulation (6 Hz); assay: 6 Hz electroshock seizure model (anticonvulsant properties); format: in vivo; conditions: Mus musculus, po, 32 mA, 3 s corneal stimulation, p.o., pretreatment time 60 mins, vehicle 5% cremaphor, female NMRI mice, read-out: ED50 (dose that would give a 50% protection from seizures)
From the text: The animal models being used for the discovery of novel antiepileptic drugs are numerous. Among these, a low frequency (6 Hz) electroshock seizure model has recently come into the limelight as a potential model of pharmacoresistant epilepsy (see Epilepsy: a comprehensive textbook, pag. 1477, by Jerome Engel, Timothy A. Pedley, Jean Aicardi, Marc A Dichter, Solomon Moshé—2007—Medical), and it is therefore an animal model of primary interest in antiepileptic drug discovery. The compounds of the invention have shown remarkable activity to protect against 6 Hz seizures.
The evaluation of the anticonvulsant properties was carried out in female NMRI mice (20-25 g, Taconic, Denmark). The mice were housed in groups (8 per cage according to weight) with food and water available ad libitum The environment was temperature (20±2° C.) and humidity (55±15%) controlled, and consisted of a 12:12 h light-dark cycle (lights on 06:00 h). The experiments were performed according to the Danish Committee for Experiments on Animals. […]
For screening purposes, the test compound was tested at 1 dose at 1 time-point. In the case of protection of 3 or more out of 8 mice, the compound were further evaluated in dose response (N=8/group). […]

SMILES | melting point | ED50 [1]
NC(=O)Cn1c(=O)ccc2cc(Br)ccc21 [Compound 1, 2-(6-Bromo-2-oxo-1-quinolyl)acetamide] | 256.6 to 257.5 °C | 16 mg/kg
NC(=O)Cn1c(=O)ccc2cccc(Br)c21 [Compound 3, 2-(8-bromo-2-oxo-1-quinolyl)acetamide] | 158.5 to 160 °C | 
NC(=O)Cn1c(=O)ccc2cc(Cl)ccc21 [Compound 4, 2-(6-chloro-2-oxo-1-quinolyl)acetamide] | 159.4 to 160.9 °C | 
NC(=O)Cn1c(=O)ccc2cccc(Cl)c21 [Compound 5, 2-(8-chloro-2-oxo-1-quinolyl)acetamide] | 166.5 to 167.6 °C | 
CCC(C(N)=O)n1c(=O)ccc2cccc(Br)c21 (stereo not drawn) [Compound 8, 2-(8-bromo-2-oxo-1-quinolyl)butanamide] | 124.2 to 125.5 °C | 

Second part, led by results:

melting point | SMILES | ED50 [1]
138.5 to 140 °C | CCC(C(N)=O)n1c(=O)ccc2cc(Br)ccc21 (stereo not drawn) [Compound 2, 2-(6-bromo-2-oxo-1-quinolyl)butanamide] | 
127 to 128 °C | CCC(C(N)=O)n1c(=O)ccc2cccc(Cl)c21 (stereo not drawn) [Compound 6, 2-(8-chloro-2-oxo-1-quinolyl)butanamide] | 
127.5 to 128.8 °C | CCC(C(N)=O)n1c(=O)ccc2cc(Cl)ccc21 (stereo not drawn) [Compound 7, 2-(6-chloro-2-oxo-1-quinolyl)butanamide] | 
